According to paper PMC12004264 (2025):

What was measured:
[1] = test system: G4 Tel (DNA, G4) AGGGTTAGGGTTAGGGTTAGGG; experiment: CD melting; conditions: K+ (concentration not restated for melting); 8 equiv. ligand; 16 μM
[2] = test system: MYC (DNA, G4) TGAGGGTGGGTAGGGTGGGTAA; experiment: CD melting; conditions: K+ (concentration not restated for melting); 8 equiv. ligand; 16 μM
[3] = test system: MYC (DNA, G4) TGAGGGTGGGTAGGGTGGGTAA; experiment: Hoechst 33258 fluorescent displacement; conditions: Hoechst 33258 displaced, quenching nearly 35%; tracking lost at higher ligand
[4] = test system: G4 Tel (DNA, G4) AGGGTTAGGGTTAGGGTTAGGG; experiment: fluorescence titration, ligand emission, Hill fit; conditions: apparent, ligand 10 μM
[5] = test system: MYC (DNA, G4) TGAGGGTGGGTAGGGTGGGTAA; experiment: fluorescence titration, ligand emission, Hill fit; conditions: K+ 100 mM, apparent, PBS 20 mM phosphate, pH 6.8, room temperature, ligand 10 μM
[6] = test system: KRAS (DNA, G4) AGGGCGGTGTGGGAAGAGGGAAGAGGGGGAGG; experiment: fluorescence titration, ligand emission, Hill fit; conditions: K+ 100 mM, apparent, PBS 20 mM phosphate, pH 6.8, room temperature, ligand 10 μM
[7] = test system: ds26 (DNA, duplex) CAATCGGATCGAATTCGATCCGATTG; experiment: fluorescence titration, ligand emission, Hill fit; conditions: K+ 100 mM, apparent, PBS 20 mM phosphate, pH 6.8, room temperature, ligand 10 μM

ΔTm [1] [°C]	ΔTm [2] [°C]	binding [3]	KD ([4]; K+ 100 mM, PBS 20 mM phosphate, pH 6.8, room temperature, Hill n 0.98) [µM]	KD ([4]; Na+ (Tris-NaCl), Tris-NaCl buffer, room temperature, Hill n 0.80, buffer alone quenches 31%) [µM]	KD ([5]; Hill n 1.33) [µM]	KD ([6]; Hill n 0.97) [µM]	KD ([7]; Hill n 0.98) [µM]	KD ([4]; K+ 100 mM, PBS 20 mM phosphate, pH 6.8, room temperature, Hill n 7.83) [µM]	KD ([4]; Na+ (Tris-NaCl), Tris-NaCl buffer, room temperature, Hill n 4.66, buffer alone quenches 44%) [µM]	KD ([5]; Hill n 4.68) [µM]	KD ([6]; Hill n 8.07) [µM]	KD ([7]; Hill n 15.27) [µM]	Structure (SMILES)
0.9	10.7	yes	3.30 ± 0.11	2.08 ± 0.07	1.86 ± 0.04	9.62 ± 0.70	14.95 ± 1.00						COc1ccc(-c2cc3c(cc2-c2cc[n+](C)cc2)c(=O)c2ccccc2n3C)cc1
1.7	6.2							2.58 ± 0.03	3.45 ± 0.05	10.85 ± 0.30	5.51 ± 0.079	3.73 ± 0.02	COc1ccc(-c2cc3c(cc2-c2ccncc2)c(=O)c2ccccc2n3C)cc1
